In the supplement of paper PMC13380429:

Legend:
Settings in all cases: 72 h
[1] = tested on: HepG2; test: relative viability EC50 (midpoint between 100% and the lowest measured viability); higher = less toxic
[2] = tested on: Vero E6; test: as above
[3] = tested on: Calu-3; test: as above
[4] = tested on: Caco-2; test: as above
[5] = tested on: U2OS; test: as above
[6] = tested on: HepG2; test: drug sensitivity score (DSS) for viability; higher = more toxic; extreme values may be limits of the assay
[7] = tested on: Vero E6; test: as above
[8] = tested on: Calu-3; test: as above
[9] = tested on: Caco-2; test: as above
[10] = tested on: U2OS; test: as above
[11] = tested on: HepG2; test: cell viability relative to DMSO; higher = less toxic
[12] = tested on: Vero E6; test: as above
[13] = tested on: Calu-3; test: as above
[14] = tested on: Caco-2; test: as above
[15] = tested on: U2OS; test: as above

| Compound | relative viability EC50 [1] [µM] | relative viability EC50 [2] [µM] | relative viability EC50 [3] [µM] | relative viability EC50 [4] [µM] | relative viability EC50 [5] [µM] | drug sensitivity score [6] | drug sensitivity score [7] | drug sensitivity score [8] | drug sensitivity score [9] | drug sensitivity score [10] | cell viability ([11]; 1 nM) [%] | cell viability ([11]; 10 nM) [%] | cell viability ([11]; 100 nM) [%] | cell viability ([11]; 1000 nM) [%] | cell viability ([11]; 10000 nM) [%] | cell viability ([12]; 1 nM) [%] | cell viability ([12]; 10 nM) [%] | cell viability ([12]; 100 nM) [%] | cell viability ([12]; 1000 nM) [%] | cell viability ([12]; 10000 nM) [%] | cell viability ([13]; 1 nM) [%] | cell viability ([13]; 10 nM) [%] | cell viability ([13]; 100 nM) [%] | cell viability ([13]; 1000 nM) [%] | cell viability ([13]; 10000 nM) [%] | cell viability ([14]; 1 nM) [%] | cell viability ([14]; 10 nM) [%] | cell viability ([14]; 100 nM) [%] | cell viability ([14]; 1000 nM) [%] | cell viability ([14]; 10000 nM) [%] | cell viability ([15]; 1 nM) [%] | cell viability ([15]; 10 nM) [%] | cell viability ([15]; 100 nM) [%] | cell viability ([15]; 1000 nM) [%] | cell viability ([15]; 10000 nM) [%] |
| --- | --- | --- | --- | --- | --- | --- | --- | --- | --- | --- | --- | --- | --- | --- | --- | --- | --- | --- | --- | --- | --- | --- | --- | --- | --- | --- | --- | --- | --- | --- | --- | --- | --- | --- | --- |
| COc1ccc2c(OCc3nnc4ccc(-c5ccccc5)nn34)ccnc2c1 [AMG-208] | > 10 | > 10 | > 10 | > 10 | > 10 | 0 | 0 | 0 | 0 | 0 | 99.4 | 99.9 | 101 | 97 | 104 | 95.6 | 92.1 | 93.9 | 104 | 91.2 | 108 | 99.8 | 97.3 | 92.2 | 97 | 99.8 | 95.9 | 104 | 100 | 91 | 104 | 95.5 | 102 | 103 | 99 |
| O=C(Nc1ccccc1C(=O)NC1CCCCNC1=O)c1cc2ccccc2s1 (stereo not given) [ANA-12] | > 10 | > 10 | > 10 | > 10 | > 10 | 0 | 0 | 0.3 | 0 | 0 | 104 | 93.1 | 100 | 91.4 | 98.4 | 100 | 99.3 | 99.8 | 89.5 | 104 | 99.6 | 95.3 | 101 | 94.7 | 87.7 | 90.9 | 97.4 | 96.1 | 106 | 96.4 | 97.8 | 101 | 91.5 | 104 | 96.7 |
| CC(C)[C@H](C(=O)Nc1ccc(C(=O)NO)cc1)c1ccccc1 [AR-42] | 0.271 | 0.26 | 0.371 | 0.498 | 0.328 | 18 | 18.9 | 14.2 | 15.3 | 17.2 | 91.7 | 103 | 75.3 | 18.6 | 0 | 97 | 95.4 | 88.7 | 5.2 | -0.1 | 96.5 | 90.5 | 83 | 36 | 12 | 101 | 95 | 97.6 | 18 | 1.2 | 98.9 | 97.3 | 86.5 | 15.4 | 0.3 |
| O=C1O[C@H]([C@@H](O)CO)C(O)=C1O [ASCORBIC ACID] | > 10 | > 10 | > 10 | > 10 | > 10 | 0 | 0 | 0 | 0 | 0 | 99.6 | 98.3 | 108 | 93.4 | 101 | 99.7 | 112 | 106 | 103 | 103 | 105 | 95.5 | 110 | 96.3 | 108 | 103 | 95.9 | 100 | 100 | 98.4 | 109 | 98.8 | 99.8 | 100 | 102 |
